Each structure is given as a SMILES string. Where two headings read alike, the source gives them in different places.

Data set [1] has as its system diabetic and prediabetic mice. In words: Body weight in diabetic and prediabetic NOD mice. It is filed as in vivo, mouse. Conditions: throughout the study period; FIG. 19A. On the procedure: (§1) Fifty four NOD mice at the prediabetic and early diabetic stages were carefully selected to match the criteria of being 2 standard deviation heavier in body weight than their age-matched normoglycemic control mice and having blood glucose value of >14.9 mM/1 during the glucose tolerance test. The selected mice were 9 weeks old and were treated with 0.1 mg/kg q2d of tacrolimus (Prograf (5 mg/ml), Astellas) subcutaneously administered in 0.2 ml saline for three weeks after which animals were mated to males of the same strain (See FIG. 1). Vehicle (0.2 ml saline, s.q.) treated hyperglycemic NOD female mice were allowed two weeks in diabetes before they were mated to males of the same strain. Facial (mandibular) venous blood samples were collected from treated animals at 24 and 48 hours between injections and at pregnancy days 0.5, 2.5, 4.5, 6.5, 8.5, 10.5, 12.5, 14.5, 16.5 and 18.5 respectively following a standard procedure for facial bleed in mice (Golde et al Lab Anim (NY) 2005 34:39-43).

The conditions of data set [2]: rats, subcutaneous 0.1 mg/kg every other day (q2d); cited from earlier work.
The test system of another data set is NOD mice. The note with it: NOD mice at younger age, model for Type 1 diabetes; cited from earlier work.
The conditions of data set [3]: humans, single oral dose of 0.5 mg; cited from earlier work.
The subject of another data set is NOD and NZO mice. In words: Implantation rate and embryonic/fetal resorption after tacrolimus. It is filed as in vivo, mouse. Conditions: short-term administration. On the procedure: as §1, with “Facial (mandibular) venous blood samples were collected from treated animals at 24 and 48 hours between injections and at pregnancy days 0.5, 2.5, 4.5, 6.5, 8.5, 10.5, 12.5, 14.5, 16.5 and 18.5 respectively following a standard procedure for facial bleed in mice (Golde et al Lab Anim (NY) 2005 34:39-43).” left out
Twenty NZO and DIO/B6 female mice were maintained on a high fat diet consisted of 60% kcal fat, 20% kcal protein and 20% kcal carbohydrate, with a total energy mass of 5.24 kcal/gm (D12492, Research Diets Inc.; Cedarlane Laboratories, Burlington, Ontario, Canada) starting at 7 weeks of age and maintained on the diet for a total of 12 weeks of study period during which their weekly body weight changes and non-fasting blood glucose values were recorded. […]

The next data set has as its system IFN-γ mRNA. The data set is described as follows: Decidual/placental IFN-γ mRNA levels. It is filed as in vivo, mouse. The note with it: mid- to late pregnancy; NOD mice, 1 or 0.1 mg/kg q2d for three weeks with or without 10 mg/kg loading dose. On the procedure: In these studies, pregnancy progression and the glycemic control of mice treated with tacrolimus were examined. In an initial set of experiments, a loading dose of 10 mg/kg was initially administered to mice at the pre-diabetic stage followed by a maintenance dose of 1 or 0.1 mg/kg every other day (q2d) for three weeks after the last injection of which animals were allowed to mate and get pregnant. In an additional set of experiments mice were injected every other day with either 1 or 0.1 mg/kg dose for three weeks during the pre-diabetic stage and after the last injection of which mice were mated and examined for the progress of their pregnancy. Ultrasonic, vascular resistance index measurements, morphologic analyses were conducted on immunosuppressed and control NOD dams and their gestational uterine samples throughout pregnancy. Uterine, decidual and placental IFN-γ mRNA levels were also measured. Immunosuppressed NOD mice achieved and maintained normal glucose homeostasis with normal pregnancy pattern and a higher rate of viably implanted embryos and fetuses having normal phenotypic appearance. Placentae of NOD mice treated with tacrolimus were more deciduomatous, and the integrity of the stem, anchoring and branching placental villi were maintained. […]

For another data set, the system named is transplant patients. The note with it: cited from earlier work.
Data set [4] relates to grossly obese and glucose intolerant NZO female mice. The data set is described as follows: Weight loss in grossly obese mice. The note with it: 0.1 mg/kg every other day for four weeks; vs vehicle, p<0.05. It is filed as in vivo, mouse. On the procedure: Data shown are mean±SEM of changes in body mass in mice administered tacrolimus (0.1 mg/kg every other day) for four weeks starting at week 16 (N=10/group). Statistical difference between groups was measured by one-way ANOVA at 95% confidence.
For studies on a grossly obese state, mice were maintained on the 60% high fat diet for 24 weeks starting at 7 weeks of age and designated as being type II diabetic according to methods described above.

As to `C=CC[C@@H]1/C=C(\C)C[C@H](C)C[C@H](OC)[C@H]2O[C@@](O)(C(=O)C(=O)N3CCCC[C@H]3C(=O)O[C@H](/C(C)=C/[C@@H]3CC[C@@H](O)[C@H](OC)C3)[C@H](C)[C@@H](O)CC1=O)[C@H](C)C[C@@H]2OC` [tacrolimus], the body weight gain result in data set [1] was “maintained normal body weight gain”. The maximal blood concentration was 0.6 nanograms/ml in data set [2] and 4.6 ng/mL in data set [3]. For the same compound, the “suppression of overt diabetes, share of treated NOD mice” value with NOD mice was 84%. For the same compound, in the data set on NOD and NZO mice, the “rates of embryonic and fetal resorption” value is “reduced rates of embryonic and fetal resorption”. Besides, in the data set on NOD and NZO mice (pregnancy days 4.5 and 6.5), the implantation rate result was “enhanced implantation rate”. Also, the “decidual/placental IFN-γ mRNA” value in the data set on IFN-γ mRNA was “Lower normal levels of decidual/placental IFN-γ mRNA”. The “safety of use during pregnancy” value in the data set with transplant patients was “safe drug for use during pregnancy”. Further, the weight loss entry in data set [4] was “induced a significant weight loss”.

The values above are taken from patent publication US9427433B2, “Methods and compositions for enhancing fertility and/or inhibiting pregnancy failure and restoring glucose tolerance” (Queen's University at Kingston, priority 2011, dated 2016).
